The text below walks through data of article PMC11684029, “Discovery of VU6024578/BI02982816: An mGlu1 Positive Allosteric Modulator with Efficacy in Preclinical Antipsychotic and Cognition Models” (Journal of Medicinal Chemistry, 2024).

A value given as a limit tells only on which side of the number the result lay.

In one data set the target is T1, human mGlu1 (Homo sapiens, UniProt Q13255).
T1 construct: expressed in transfected cells; pcDNA5/TO)
As to the kind of experiment: mGlu1 calcium mobilization (triple-add) PAM assay. The format is cell-based. As to the method: Tetracycline-inducible human mGlu1 WT-T-REx-293 cells (Wu et al, Science 2014) were cultured at 37 °C in Dulbecco’s Modified Eagle Medium (DMEM) growth medium containing 10% Tet-tested FBS, 2 mM L-glutamine, 20 mM HEPES, 0.1 mM nonessential amino acids, 1 mM sodium pyruvate, antibiotic/antimycotic, 100 μg/mL hygromycin and 5 μg/mL blasticidin in the presence of 5% CO2. […] The mutant stable cell lines were generated in the same manner as the WT as previously described and cultured in the growth medium described above.
To determine the potency of mGlu1 PAMs in calcium assays, Ca flux was measured as previously described in ACS Chem. Bio. 2014, 9, 2334–2346. Briefly, the day before the assay, human mGlu1 WT-T-REx-293 cells were plated in black-walled, clear-bottomed, poly-D-lysine coated 96-well plates at 80,000 cells/100 μL assay medium (DMEM supplemented with 10% dialyzed FBS, 20 mM HEPES, and 1 mM sodium pyruvate) containing 50 ng/mL of tetracycline to induce mGlu1 expression. The next day, media was removed and the cells were incubated with 50 μL of 1.15 μM Fluo-4 AM dye solution prepared in assay buffer (buffer (Hank’s balanced salt solution, 20 mM HEPES, and 2.5 mM probenecid) for 45 min at 37 °C, the dye was removed and replaced with 45 μL of assay buffer. Then, calcium flux was measured using Flexstation II (Molecular Devices, Sunnyvale, CA). Compounds serially diluted at half log concentrations in DMSO were further diluted in assay buffer. The compounds or DMSO vehicle were added to cells and incubated for 2.5 min and an EC20 concentration of glutamate was added and incubated for 1 min. An ECmax concentration of glutamate was also added to cells that were incubated with DMSO vehicle to accurately calculate the EC20 calcium response. Data were normalized by subtracting the basal florescent peak before EC20 agonist addition from the maximal peak elicited by EC20 agonist and PAMs. Using GraphPad Prism 5.0, the concentration response curves were generated and the potencies of the mGlu1 PAMs were determined.
(A change in cytosolic calcium serves as a functional read-out for many receptors and channels.)

A further data set deals with rat mGlu1 (Rattus norvegicus, UniProt P23385). The experiment in a line: mGlu1 calcium mobilization PAM assay. The format is cell-based. The settings on record: PAM, calcium flux.
rat mGlu1, sequence (P23385 19-1199): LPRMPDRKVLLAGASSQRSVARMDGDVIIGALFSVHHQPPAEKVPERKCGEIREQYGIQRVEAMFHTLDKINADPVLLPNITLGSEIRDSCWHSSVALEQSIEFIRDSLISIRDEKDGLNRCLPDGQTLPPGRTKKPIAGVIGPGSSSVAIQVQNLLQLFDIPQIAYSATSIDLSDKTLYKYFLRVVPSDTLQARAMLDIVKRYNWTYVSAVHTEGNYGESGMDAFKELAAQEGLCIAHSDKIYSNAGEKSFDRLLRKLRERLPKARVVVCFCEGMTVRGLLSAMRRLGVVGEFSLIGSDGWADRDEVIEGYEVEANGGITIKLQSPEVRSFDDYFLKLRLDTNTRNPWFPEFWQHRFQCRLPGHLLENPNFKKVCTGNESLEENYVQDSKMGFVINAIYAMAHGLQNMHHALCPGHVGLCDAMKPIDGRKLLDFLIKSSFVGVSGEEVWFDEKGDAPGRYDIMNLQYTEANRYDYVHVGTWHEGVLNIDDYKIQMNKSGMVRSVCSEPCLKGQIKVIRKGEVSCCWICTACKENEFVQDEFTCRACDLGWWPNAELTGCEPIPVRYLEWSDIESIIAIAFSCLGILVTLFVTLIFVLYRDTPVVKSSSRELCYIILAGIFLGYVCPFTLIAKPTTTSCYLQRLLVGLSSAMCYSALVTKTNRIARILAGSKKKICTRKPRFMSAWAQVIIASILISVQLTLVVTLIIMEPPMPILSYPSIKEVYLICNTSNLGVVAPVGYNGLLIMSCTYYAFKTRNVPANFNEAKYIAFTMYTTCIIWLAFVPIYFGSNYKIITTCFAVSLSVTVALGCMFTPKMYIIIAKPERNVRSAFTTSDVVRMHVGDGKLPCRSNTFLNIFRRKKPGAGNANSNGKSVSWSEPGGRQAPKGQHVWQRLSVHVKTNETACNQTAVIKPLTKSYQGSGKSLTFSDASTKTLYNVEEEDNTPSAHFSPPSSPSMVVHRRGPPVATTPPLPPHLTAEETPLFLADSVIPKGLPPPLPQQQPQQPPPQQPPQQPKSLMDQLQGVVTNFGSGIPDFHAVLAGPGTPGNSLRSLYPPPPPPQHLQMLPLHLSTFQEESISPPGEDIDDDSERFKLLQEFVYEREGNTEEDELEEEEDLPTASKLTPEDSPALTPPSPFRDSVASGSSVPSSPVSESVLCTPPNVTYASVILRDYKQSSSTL
A short description of data set [1]: plasma protein binding, equilibrium dialysis. In kind it is in vitro ADME, rat. The settings on record: fraction unbound. The method, then:
(§1) The protein binding of each compound was determined in plasma via equilibrium dialysis employing RED Plates (ThermoFisher Scientific, Rochester, NY). Plasma was added to the 96 well plate containing test compound and mixed thoroughly for a final concentration of 5 μM. Subsequently, an aliquot of the plasma-compound mixture was transferred to the cis chamber (red) of the RED plate, with an phosphate buffer (25 mM, pH 7.4) in the trans chamber. The RED plate was sealed and incubated for 4 h at 37 °C with shaking. At completion, aliquots from each chamber were diluted 1:1 with either plasma (cis) or buffer (trans) and transferred to a new 96 well plate, at which time ice-cold acetonitrile containing internal standard (50 ng/mL carbamazepine) (2 volumes) was added to extract the matrices. The plate was centrifuged (3000 rcf, 10 min) and supernatants transferred and diluted 1:1 (supernatant: water) into a new 96 well plate, which was then sealed in preparation for LC/MS/MS analysis. Each compound was assayed in triplicate within the same 96-well plate. Fraction unbound was determined using the following equation [drawing 1]
On the technique in general: In equilibrium dialysis free small molecules cross a membrane that holds back macromolecules.

Data set [2] can be described thus: intrinsic clearance, predicted hepatic clearance. In kind it is in vitro ADME, rat. The conditions noted are these: in vitro predicted hepatic clearance. The method, then: (§2) Human or rat hepatic microsomes (0.5 mg/mL) and 1 μM test compound were incubated in 100 mM potassium phosphate pH 7.4 buffer with 3 mM MgCl2 at 37 °C with constant shaking. After a 5 min preincubation, the reaction was initiated by addition of NADPH (1 mM). At selected time intervals (0, 3, 7, 15, 25, and 45 min), aliquots were taken and subsequently placed into a 96-well plate containing cold acetonitrile with internal standard (50 ng/mL carbamazepine). Plates were then centrifuged at 3000 rcf (4 °C) for 10 min, and the supernatant was transferred to a separate 96-well plate and diluted 1:1 with water for LC/MS/MS analysis. The in vitro half-life (T1/2, min, eq 1), intrinsic clearance (CLint, mL/min/kg, eq 2) and subsequent predicted hepatic clearance (CLhep, mL/min/kg, eq 3) was determined employing the following equations: [drawing 2] 1 where k represents the slope from linear regression analysis of the natural log percent remaining of test compound as a function of incubation time [drawing 3] 2
(§3) ^ascale-up factors: of 20 (human) or 45 (rat) [drawing 4] 3 where Qh (hepatic blood flow, mL/min/kg) is 21 (human) or 70 (rat).

Data set [3] can be described thus: intrinsic clearance, predicted hepatic clearance. In kind it is in vitro ADME, human. The settings on record: in vitro predicted hepatic clearance. The method, then: as §2, §3
The nature of data set [4]: plasma protein binding, equilibrium dialysis. The format is in vitro ADME, human. The settings on record: fraction unbound. The method, then: as §1
The next data set is described as follows: brain homogenate binding. In kind it is in vitro ADME, rat. The conditions noted are these: fraction unbound.
[5] abbreviates: PAM, calcium flux, EC20 glutamate.

T1 sequence (Q13255 19-1194): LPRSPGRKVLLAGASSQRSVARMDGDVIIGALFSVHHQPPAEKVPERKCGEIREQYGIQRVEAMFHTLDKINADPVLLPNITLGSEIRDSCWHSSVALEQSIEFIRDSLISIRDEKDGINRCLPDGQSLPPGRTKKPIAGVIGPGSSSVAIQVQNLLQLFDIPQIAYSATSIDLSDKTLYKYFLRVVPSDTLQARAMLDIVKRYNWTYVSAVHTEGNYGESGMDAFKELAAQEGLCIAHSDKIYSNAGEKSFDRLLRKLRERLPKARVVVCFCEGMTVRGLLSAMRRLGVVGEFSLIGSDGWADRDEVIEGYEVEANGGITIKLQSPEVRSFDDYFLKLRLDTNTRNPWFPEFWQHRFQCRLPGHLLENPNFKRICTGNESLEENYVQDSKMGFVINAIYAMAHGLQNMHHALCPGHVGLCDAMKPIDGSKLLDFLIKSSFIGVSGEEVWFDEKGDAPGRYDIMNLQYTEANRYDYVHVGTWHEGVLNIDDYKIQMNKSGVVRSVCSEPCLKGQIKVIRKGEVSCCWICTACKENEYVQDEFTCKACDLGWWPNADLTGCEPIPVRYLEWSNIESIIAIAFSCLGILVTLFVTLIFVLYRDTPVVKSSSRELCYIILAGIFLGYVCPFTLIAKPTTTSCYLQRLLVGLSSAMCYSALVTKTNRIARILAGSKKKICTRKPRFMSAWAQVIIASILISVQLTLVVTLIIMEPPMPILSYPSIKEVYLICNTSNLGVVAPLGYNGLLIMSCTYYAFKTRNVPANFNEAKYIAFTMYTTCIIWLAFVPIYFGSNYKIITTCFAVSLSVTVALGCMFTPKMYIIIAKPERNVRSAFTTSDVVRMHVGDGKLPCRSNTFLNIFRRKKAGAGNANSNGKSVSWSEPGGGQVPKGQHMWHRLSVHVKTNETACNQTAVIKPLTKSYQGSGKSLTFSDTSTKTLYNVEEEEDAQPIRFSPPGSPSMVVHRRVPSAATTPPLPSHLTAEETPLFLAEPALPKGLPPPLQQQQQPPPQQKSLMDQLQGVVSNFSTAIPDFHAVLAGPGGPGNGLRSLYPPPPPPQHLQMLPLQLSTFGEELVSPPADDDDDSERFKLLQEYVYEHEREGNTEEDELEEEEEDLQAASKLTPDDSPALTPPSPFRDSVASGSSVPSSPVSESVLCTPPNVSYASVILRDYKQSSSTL

As for `COc1ccc(Cl)cc1C(=O)NCc1cnn2ccccc12` [Compound 6, 5-Chloro-2-methoxy-N-(pyrazolo[1,5-a]pyridin-3-ylmethyl)benzamide], at human mGlu1 (setting [5]), the EC50 (as a rule, the concentration needed to bring the measured effect to its halfway point) was greater than 10000 nM and the “human mGlu1 Glumax” value is given as 71%.
Consider `COc1ccc(OC)c(C(=O)NCc2cnn3ccccc23)c1` [Compound 9a, 2,5-Dimethoxy-N-(pyrazolo[1,5-a]pyridin-3-ylmethyl)benzamide], for which, at human mGlu1 (setting [5]), the EC50 was 5120 nM and the “human mGlu1 Glumax” value is recorded as 45%.
With `COc1ccc(C)cc1C(=O)NCc1cnn2ccccc12` [Compound 9b, 2-Methoxy-5-methyl-N-(pyrazolo[1,5-a]pyridin-3-ylmethyl)benzamide], on human mGlu1 (setting [5]), the EC50 came to 7380 nM and the “human mGlu1 Glumax” value is on record as 62%.
For the molecule `Cc1ccc(Cl)cc1C(=O)NCc1cnn2ccccc12` [Compound 9c, 5-Chloro-2-methyl-N-(pyrazolo[1,5-a]pyridin-3-ylmethyl)benzamide], on human mGlu1 (setting [5]), the EC50 was found to be 6060 nM and the “human mGlu1 Glumax” value came to 47%.
Consider `O=C(NCc1cnn2ccccc12)c1cc(Cl)ccc1Cl` [Compound 9d, 2,5-Dichloro-N-(pyrazolo[1,5-a]pyridin-3-ylmethyl)benzamide], for which, on human mGlu1 (setting [5]), the EC50 is 3790 nM and the “human mGlu1 Glumax” value was 46%. In addition, at human mGlu1 (human mGlu1 EC50 ratio), the “improvement in mGlu1 PAM potency over HTS hit 6” value was roughly 3 fold.
As for `O=C(NCc1cnn2ccccc12)c1cc(-c2ccccc2)ccc1Cl` [Compound 9f, 4-Chloro-N-(pyrazolo[1,5-a]pyridin-3-ylmethyl)-[1,1′-biphenyl]-3-carboxamide], at human mGlu1 (setting [5]), the EC50 turned out to be 434 nM and the “human mGlu1 Glumax” value was 33%. Also, on rat mGlu1, the half-maximal effective concentration (EC50) was found to be 1010 nM and the “rat mGlu1 Glumax” value worked out at 48%.
Take `O=C(NCc1cnn2ccccc12)c1cc(-c2cccs2)ccc1Cl` [Compound 9g, 2-Chloro-N-(pyrazolo[1,5-a]pyridin-3-ylmethyl)-5-(thiophen-2-yl)benzamide]: on human mGlu1 (setting [5]), the EC50 is 291 nM and the “human mGlu1 Glumax” value worked out at 51%. Moreover, on rat mGlu1, the EC50 is 369 nM and the “rat mGlu1 Glumax” value was determined as 75%.
Take `O=C(NCc1cnn2ccccc12)c1cc(-c2ccsc2)ccc1Cl` [Compound 9h, 2-Chloro-N-(pyrazolo[1,5-a]pyridin-3-ylmethyl)-5-(thiophen-3-yl)benzamide]: at human mGlu1 (setting [5]), the 50% effective concentration (EC50) stood at 641 nM and the “human mGlu1 Glumax” value was determined as 35%.
With `O=C(NCc1cnn2ccccc12)c1cc(-c2nccs2)ccc1Cl` [Compound 9i, 2-Chloro-N-(pyrazolo[1,5-a]pyridin-3-ylmethyl)-5-(thiazol-2-yl)benzamide], at human mGlu1 (setting [5]), the EC50 was 790 nM and the “human mGlu1 Glumax” value is 61%. In addition, on rat mGlu1, the EC50 stood at 3150 nM and the “rat mGlu1 Glumax” value stood at 79%.
As for `Cn1nccc1-c1ccc(Cl)c(C(=O)NCc2cnn3ccccc23)c1` [Compound 9j, 2-Chloro-5-(1-methyl-1H-pyrazol-5-yl)-N-(pyrazolo[1,5-a]pyridin-3-ylmethyl)benzamide], at human mGlu1 (setting [5]), the “human mGlu1 EC50 (Glumax), result in words” value is recorded as “Inactive”.
Consider `O=C(NCc1cc(-c2ccccc2)no1)c1cc(-c2ccco2)ccc1Cl` [Compound 15a, 2-Chloro-5-(furan-2-yl)-N-((3-phenylisoxazol-5-yl)methyl)benzamide], for which, at human mGlu1 (setting [5]), the 50% effective concentration (EC50) turned out to be 211 nM and the “human mGlu1 Glumax” value is listed as 96%. In addition, the rat fuplasma in data set [1] was 0.009. The “CLhep, rat” value in data set [2] is listed as 60.9 mL/min/kg. In data set [3], the “CLhep, human” value is recorded as 19.4 mL/min/kg. The human fuplasma in data set [4] is given as 0.001.
Regarding `O=C(NCc1noc(-c2ccccc2)n1)c1cc(-c2ccco2)ccc1Cl` [Compound 15b, 2-Chloro-5-(furan-2-yl)-N-((5-phenyl-1,2,4-oxadiazol-3-yl)methyl)benzamide], on human mGlu1 (setting [5]), the concentration for a half-maximal effect (EC50) turned out to be 39 nM and the “human mGlu1 Glumax” value is reported as 56%. The molecule further gave a rat fuplasma in data set [1] of 0.004. Also, the “CLhep, rat” value in data set [2] is recorded as 61.8 mL/min/kg. In data set [3], the “CLhep, human” value is 19.9 mL/min/kg. In data set [4], this molecule had a human fuplasma of 0.001. For the same molecule, on rat mGlu1, the EC50 is 62 nM and the “rat mGlu1 Glumax” value was found to be 106%. For the same molecule, in the data set “brain homogenate binding”, the rat fubrain amounted to 0.005.
`O=C(NCc1noc(C2CC2)n1)c1cc(-c2ccco2)ccc1Cl` [Compound 15c, 2-Chloro-N-((5-cyclopropyl-1,2,4-oxadiazol-3-yl)methyl)-5-(furan-2-yl)benzamide]: on human mGlu1 (setting [5]), the EC50 is 10000 nM and the “human mGlu1 Glumax” value stood at 44%.
With `O=C(NCc1nc(C2CC2)no1)c1cc(-c2ccco2)ccc1Cl` [Compound 15d, 2-Chloro-N-((3-cyclopropyl-1,2,4-oxadiazol-5-yl)methyl)-5-(furan-2-yl)benzamide], at human mGlu1 (setting [5]), the 50% effective concentration (EC50) came to 714 nM and the “human mGlu1 Glumax” value stood at 80%. For the same molecule, on rat mGlu1, the EC50 worked out at 509 nM and the “rat mGlu1 Glumax” value was found to be 95%.
Regarding `O=C(NCc1cnc(-c2cccs2)s1)c1cc(-c2ccco2)ccc1Cl` [Compound 15e, 2-Chloro-5-(furan-2-yl)-N-((2-(thiophen-2-yl)thiazol-5-yl)methyl)benzamide], at human mGlu1 (setting [5]), the EC50 was 96 nM and the “human mGlu1 Glumax” value was 71%. In data set [1], the rat fuplasma is listed as 0.003. In addition, the “CLhep, rat” value in data set [2] was 57.4 mL/min/kg. The “CLhep, human” value in data set [3] is listed as 19.7 mL/min/kg. In data set [4], this molecule came in with a human fuplasma of 0.001. At rat mGlu1, the EC50 is 301 nM and the “rat mGlu1 Glumax” value turned out to be 51%. This molecule also returned a rat fubrain in “brain homogenate binding” of 0.002.
Turning to `Cn1nc(C(F)(F)F)cc1CNC(=O)c1cc(-c2ccco2)ccc1Cl` [Compound 15f, 2-Chloro-5-(furan-2-yl)-N-((1-methyl-3-(trifluoromethyl)-1H-pyrazol-5-yl)methyl)benzamide], at human mGlu1 (setting [5]), the concentration for a half-maximal effect (EC50) was found to be 188 nM and the “human mGlu1 Glumax” value was 60%. The molecule further returned a rat fuplasma in data set [1] of 0.025. Further, the “CLhep, rat” value in data set [2] is reported as 57.1 mL/min/kg. For the same molecule, the “CLhep, human” value in data set [3] is listed as 20.3 mL/min/kg. The molecule further returned a human fuplasma in data set [4] of 0.036. Also, at rat mGlu1, the concentration for a half-maximal effect (EC50) was found to be 280 nM and the “rat mGlu1 Glumax” value is 74%. In the data set “brain homogenate binding”, this molecule displayed a rat fubrain of 0.019.
Turning to `Cn1nc(-c2cccs2)cc1CNC(=O)c1cc(-c2ccco2)ccc1Cl` [Compound 19a, 2-Chloro-5-(furan-2-yl)-N-((1-methyl-3-(thiophen-2-yl)-1H-pyrazol-5-yl)methyl)benzamide], at human mGlu1 (setting [5]), the concentration for a half-maximal effect (EC50) worked out at 56 nM and the “human mGlu1 Glumax” value was 69%. In addition, the rat fuplasma in data set [1] was determined as 0.002. Moreover, in data set [2], the “CLhep, rat” value is given as 54.8 mL/min/kg. Moreover, in data set [3], the “CLhep, human” value is given as 19.0 mL/min/kg. The human fuplasma in data set [4] amounted to 0.002. Further, at rat mGlu1, the EC50 was 20 nM and the “rat mGlu1 Glumax” value was 109%. Moreover, in “brain homogenate binding”, the rat fubrain amounted to 0.003.
